Results as given in patent US20240199552A1, “AMIDE COMPOUND AND USE THEREOF” (Metisa Biotechnology Co., Ltd, priority 2021, published 2024).

Assays:
Format in all cases: in vivo
Mythimna separata = assay: Insecticidal activity against Mythimna separata, Airbrush spray on maize leaf pieces; conditions: 72 h, 0.05 mg/L, 3 days after the administration, 3rd-instar larvae, read-out: mortality rate against Mythimna separata
Description: (§1) After the compound to be determined was dissolved in a mixed solvent of acetone/methanol (1:1), it was diluted with water containing 0.1% (wt) Tween-80 to a desired concentration.
(§2) Mythimna separata, Diamondback moth, Chilo suppressalis, Spodoptera exigua, Myzus persicae, and Franklinella occidentalis were used as targets, and the activity was tested by an Airbrush spray method.
Determination method: maize leaves were cut into 2 cm leaf pieces, and the front and back of each leaf piece were sprayed under an Airbrush spray treatment pressure of 10 psi (approximate to 0.7 kg/cm^2) and with a spray volume of 0.5 mL. After drying in the shade, 10 3rd-instar larvae were inoculated for each treatment, and each treatment was repeated for 3 times. After the treatment, the leaf pieces were put into an observation chamber at 25° C. and with a relative humidity of 60% to 70%, and the number of living larvae was investigated 3 days after the administration of the compounds, and the mortality rates were calculated.

Diamondback moth = assay: Insecticidal activity against Diamondback moth, Airbrush spray on cabbage leaf discs; conditions: Plutella xylostella, foliar, 72 h, 3 days after the administration; for mortality at 0.156 µg/mL: 0.156 mg/L, read-out: Mortality rate (%, 3 days after the administration) 0.156 mg/L; for mortality at 0.156 µg/mL / mortality at 0.313 µg/mL / mortality at 10 µg/mL: Diamondback moth; for mortality at 0.313 µg/mL: 0.313 mg/L, read-out: Mortality rate (%, 3 days after the administration) 0.313 mg/L; for mortality at 1.25 µg/mL: 1.25 mg/L, 3rd-instar larvae, read-out: mortality rate against Diamondback moth; for mortality at 10 µg/mL: 10 mg/L, read-out: Mortality rate (%, 3 days after the administration) 10 mg/L
Description: as §1, §2
Determination method: cabbage leaves were formed into leaf discs having a diameter of 2 cm using a puncher, and the front and back of each leaf disc were sprayed under an Airbrush spray treatment pressure of 10 psi (approximate to 0.7 kg/cm^2) and with a spray volume of 0.5 mL. After drying in the shade, 10 3rd-instar larvae were inoculated for each treatment, and each treatment was repeated for 3 times. After the treatment, the leaf discs were placed into an observation chamber at 25° C. and with a relative humidity of 60% to 70%, and the number of living larvae was investigated 3 days after the administration of the compounds, and the mortality rates were calculated.

Chilo suppressalis = assay: Insecticidal activity against Chilo suppressalis, sprayed rice stems; conditions: 72 h, 0.625 mg/L, 3 days after the administration, 3rd-instar larvae, read-out: mortality rate against Chilo suppressalis
Description: as §1, §2
Determination method: 1) Preparation of rice seedlings: rice was cultured in a plastic small cup with a diameter of 4.5 cm and a height of 4 cm in a constant temperature room (the temperature was 26-28° C., the relative humidity was about 60-80%, and the illumination was 16hL:8hD), when the rice grown to a 4-5 leaf stage, robust and uniformly grown rice seedlings were selected for pharmaceutical treatment, and 3 replicates were set for each treatment. 2) Preparation of test insects: 3rd-instar larvae of Chilo suppressalis were continuously reared indoors. 3) Rice stems were sprayed and insects were introduced. A spray method was used to treat whole rice seedlings with uniform spray, and each treatment was 15 mL. Blank controls were treated firstly, and then the above operation was repeated in an order of experimental concentrations from low to high. After the spray treatment of the rice seedlings, they were placed in the shade to air-dry drug liquid, about 5 cm of the stem from a basal part of the stem was cut and fed to the test insects. A glass culture dish with a diameter of 90 mm was prepared, filter paper was placed on the bottom of the dish, then water was added to moisturize. About 5 rice stems were placed in each dish, 10 larvae were introduced, and the culture dish was closed with non-woven fabric and placed in the constant-temperature room for culture. 3 days after the administration, the number of residual live insects was investigated.

Spodoptera exigua = assay: Insecticidal activity against Spodoptera exigua, leaf disc dipping feeding method; conditions: foliar, 72 h, 0.625 mg/L, 3 days after the administration, read-out: mortality rate against Spodoptera exigua
Description: After the compound to be determined was dissolved in a mixed solvent of acetone/methanol (1:1), it was diluted with water containing 0.1% (wt) Tween-80 to a desired concentration. […]
Determination method: the activity was tested by using a leaf disc dipping feeding method. Leaf discs were dipped in a drug solution for 10 s, and placed in a culture dish after being air-dried, there were 4 discs in each dish, and a filter paper was placed in the culture dish for moisture retention. 10 test insects of Spodoptera exigua were introduced to each dish, with 3 replicates.
They were placed in a light incubator for culture at a temperature of 25° C. and an illumination of 14hL:10hD. On the 1st, 2nd, and 3rd day after the administration, the number of dead Spodoptera exigua was investigated and the mortality rate was calculated.

Myzus persicae = assay: Insecticidal activity against Myzus persicae, Airbrush spray on cabbage leaves; conditions: 50 mg/L, after 48 h, read-out: mortality rate against Myzus persicae
Description: as §1, §2
Determination method: a culture dish with a diameter of 6 cm was taken, the bottom of the dish was covered by a layer of filter paper, and an appropriate amount of tap water was added to moisturize the paper. Cabbage leaves with an appropriate size (the diameter was about 3 cm) and 15-30 aphids grown were cut from cabbage plants used to culture Myzus persicae, winged aphids and aphids on the front of the leave were removed, and it was placed in the culture dish while the back of the leave was upward. The pressure of airbrush spray treatment was 10 psi (about 0.7 kg/cm^2), the liquid spray volume was 0.5 mL, and there were 3 replicates for each treatment. After the treatment, the leave was put into an observation room for culture at 25° C. and a relative humidity of 60-70%. After 48 h, the number of live insects was investigated and the mortality rate was calculated.

[1] = system: Franklinella occidentalis; assay: Insecticidal activity against Franklinella occidentalis nymphs, sprayed bean leaves
Description: as §1, §2
Determination method: fresh bean leaves cultivated in a greenhouse were selected, a hand-held Airbrush sprayer was used to spray uniformly, each treatment was 1 mL, and after being air-dried naturally, the leaves were placed in a finger-shaped tube. Neat and healthy Franklinella occidentalis nymphs were introduced, there were 15 nymphs for each treatment, 3 replicates were set for the experiment, and water treatment was set as a blank control. After the treatment, the leaves were put into an indoor culture room for culture at 24° C., a relative humidity of 60-70%, and natural light. After 72 h, the number of live insects was investigated and the mortality rate was calculated.

cat flea = assay: Insecticidal experiment on cat flea, thin film in culture dish; conditions: Ctenocephalides felis, 72 h, read-out: mortality rate, cat flea
Description: 4 mg of the compound to be determined was dissolved in 40 mL of acetone to obtain an acetone solution with a concentration of 100 mg/L. 400 μL of the drug solution was applied on the bottom and sides of a culture dish with an inner diameter of 5.3 cm, then after acetone was evaporated, a thin film of the compound of the present invention was made on the inner wall of the culture dish. The inner wall of the culture dish used was 40 cm^2, and the treatment dosage was 1 μg/cm^2. 10 adult cat fleas (mixed male and female) were put into the dish, and it was stored in a constant-temperature room at 25° C. after being covered. The number of dead insects after 72 h was checked and the mortality rate was calculated. The experiment was repeated for 3 times.

| Compound | mortality at 0.05 µg/mL (Mythimna separata) | mortality at 0.156 µg/mL (Diamondback moth) | mortality at 0.313 µg/mL (Diamondback moth) | mortality at 1.25 µg/mL (Diamondback moth) | mortality at 10 µg/mL (Diamondback moth) | mortality at 0.625 µg/mL (Chilo suppressalis) | mortality at 0.625 µg/mL (Spodoptera exigua) | mortality at 50 µg/mL (Myzus persicae) | Mortality rate (%, 3 days after the administration) 10 mg/L [1] | Mortality rate (%, 3 days after the administration) 100 mg/L [1] | mortality at 1 µg/cm2 (cat flea) |
| --- | --- | --- | --- | --- | --- | --- | --- | --- | --- | --- | --- |
| C=CCN(C(=O)c1ccccc1)c1cccc(C(=O)Nc2c(Br)cc(C(F)(C(F)(F)F)C(F)(F)F)cc2C(F)(F)F)c1F [Compound 3] | > 90% | 100% | 100% | > 90% | 100% | > 90% | > 90% | > 90% | 93.33% | 100% | > 90% |
| C=CCN(C(=O)c1ccc(F)cc1)c1cccc(C(=O)Nc2c(Br)cc(C(F)(C(F)(F)F)C(F)(F)F)cc2C(F)(F)F)c1F [Compound 7] | > 90% | 100% | 100% | > 90% | 100% | > 90% | > 90% | > 90% | 91.11% | 100% | > 90% |
| C=CCN(C(=O)c1ccc(F)cc1)c1cccc(C(=O)Nc2c(I)cc(C(F)(C(F)(F)F)C(F)(F)F)cc2C(F)(F)F)c1F [Compound 8] | > 90% | 100% | 100% | > 90% | 100% | > 90% | > 90% | > 90% | 88.89% | 100% | > 90% |
| C=CCN(C(=O)c1ccc(F)nc1)c1cccc(C(=O)Nc2c(Br)cc(C(F)(C(F)(F)F)C(F)(F)F)cc2C(F)(F)F)c1F [Compound 19] | > 90% | 100% | 100% | > 90% | 100% | > 90% | > 90% | > 90% | 100% | 100% | > 90% |
| C=CCN(C(=O)c1ccc(F)nc1)c1cccc(C(=O)Nc2c(I)cc(C(F)(C(F)(F)F)C(F)(F)F)cc2C(F)(F)F)c1F [Compound 20] | > 90% | 100% | 100% | > 90% | 100% | > 90% | > 90% | > 90% | 100% | 100% | > 90% |
| C#CCN(C(=O)c1ccccc1)c1cccc(C(=O)Nc2c(I)cc(C(F)(C(F)(F)F)C(F)(F)F)cc2C(F)(F)F)c1F [Compound 32] | > 90% |  |  | > 90% | 100% | > 90% | > 90% | > 90% |  |  | > 90% |
| C#CCN(C(=O)c1ccc(C#N)cc1)c1cccc(C(=O)Nc2c(Br)cc(C(F)(C(F)(F)F)C(F)(F)F)cc2C(F)(F)F)c1F [Compound 39] | > 90% |  |  | > 90% | 100% | > 90% | > 90% | > 90% |  |  | > 90% |
| C#CCN(C(=O)c1ccc(C#N)cc1)c1cccc(C(=O)Nc2c(I)cc(C(F)(C(F)(F)F)C(F)(F)F)cc2C(F)(F)F)c1F [Compound 40] | > 90% |  |  | > 90% | 100% | > 90% | > 90% | > 90% |  |  | > 90% |
| C#CCN(C(=O)c1ccc(C#N)nc1)c1cccc(C(=O)Nc2c(Br)cc(C(F)(C(F)(F)F)C(F)(F)F)cc2C(F)(F)F)c1F [Compound 51] | > 90% |  |  | > 90% | 100% | > 90% | > 90% | > 90% |  |  | > 90% |
| C#CCN(C(=O)c1ccc(C#N)nc1)c1cccc(C(=O)Nc2c(I)cc(C(F)(C(F)(F)F)C(F)(F)F)cc2C(F)(F)F)c1F [Compound 52] | > 90% |  |  | > 90% | 100% | > 90% | > 90% | > 90% |  |  | > 90% |
| C#CCN(C(=O)c1ccc(C(F)(F)F)nc1)c1cccc(C(=O)Nc2c(Br)cc(C(F)(C(F)(F)F)C(F)(F)F)cc2C(F)(F)F)c1F [Compound 55] | > 90% |  |  | > 90% | 100% | > 90% | > 90% | > 90% |  |  | > 90% |
| C#CCN(C(=O)c1ccc(C(F)(F)F)nc1)c1cccc(C(=O)Nc2c(I)cc(C(F)(C(F)(F)F)C(F)(F)F)cc2C(F)(F)F)c1F [Compound 56] | > 90% |  |  | > 90% | 100% | > 90% | > 90% | > 90% |  |  | > 90% |
